The text below walks through data of US9663508B2, “Biaryl acyl-sulfonamide compounds as sodium channel inhibitors” (AMGEN INC., priority 2013, dated 2017).

Data set [1] has as its target human Nav 1.5 (Homo sapiens (Human), UniProt Q14524). Nature of the data set: Nav 1.5 IonWorks Quattro (IWQ) in vitro assay. The data set is classed as cell-based. For orientation: In patch-clamp work, channel activity is measured electrically.
Data set [2] concerns the target human Nav1.7 (Homo sapiens (Human), UniProt Q15858). Nature of the data set: Nav 1.7 in vitro PatchXpress (PX) assay. It counts as cell-based.
Setting [3] is: human, HEK 293 cells stably transfected with human Nav 1.5, in-vitro Nav 1.5 IWQ data, read-out: NAV 1.5 IWQ (IC50).

Read-outs that look alike come from different tables or passages of the source.

Chain of human Nav 1.5 (Q14524 whole entry): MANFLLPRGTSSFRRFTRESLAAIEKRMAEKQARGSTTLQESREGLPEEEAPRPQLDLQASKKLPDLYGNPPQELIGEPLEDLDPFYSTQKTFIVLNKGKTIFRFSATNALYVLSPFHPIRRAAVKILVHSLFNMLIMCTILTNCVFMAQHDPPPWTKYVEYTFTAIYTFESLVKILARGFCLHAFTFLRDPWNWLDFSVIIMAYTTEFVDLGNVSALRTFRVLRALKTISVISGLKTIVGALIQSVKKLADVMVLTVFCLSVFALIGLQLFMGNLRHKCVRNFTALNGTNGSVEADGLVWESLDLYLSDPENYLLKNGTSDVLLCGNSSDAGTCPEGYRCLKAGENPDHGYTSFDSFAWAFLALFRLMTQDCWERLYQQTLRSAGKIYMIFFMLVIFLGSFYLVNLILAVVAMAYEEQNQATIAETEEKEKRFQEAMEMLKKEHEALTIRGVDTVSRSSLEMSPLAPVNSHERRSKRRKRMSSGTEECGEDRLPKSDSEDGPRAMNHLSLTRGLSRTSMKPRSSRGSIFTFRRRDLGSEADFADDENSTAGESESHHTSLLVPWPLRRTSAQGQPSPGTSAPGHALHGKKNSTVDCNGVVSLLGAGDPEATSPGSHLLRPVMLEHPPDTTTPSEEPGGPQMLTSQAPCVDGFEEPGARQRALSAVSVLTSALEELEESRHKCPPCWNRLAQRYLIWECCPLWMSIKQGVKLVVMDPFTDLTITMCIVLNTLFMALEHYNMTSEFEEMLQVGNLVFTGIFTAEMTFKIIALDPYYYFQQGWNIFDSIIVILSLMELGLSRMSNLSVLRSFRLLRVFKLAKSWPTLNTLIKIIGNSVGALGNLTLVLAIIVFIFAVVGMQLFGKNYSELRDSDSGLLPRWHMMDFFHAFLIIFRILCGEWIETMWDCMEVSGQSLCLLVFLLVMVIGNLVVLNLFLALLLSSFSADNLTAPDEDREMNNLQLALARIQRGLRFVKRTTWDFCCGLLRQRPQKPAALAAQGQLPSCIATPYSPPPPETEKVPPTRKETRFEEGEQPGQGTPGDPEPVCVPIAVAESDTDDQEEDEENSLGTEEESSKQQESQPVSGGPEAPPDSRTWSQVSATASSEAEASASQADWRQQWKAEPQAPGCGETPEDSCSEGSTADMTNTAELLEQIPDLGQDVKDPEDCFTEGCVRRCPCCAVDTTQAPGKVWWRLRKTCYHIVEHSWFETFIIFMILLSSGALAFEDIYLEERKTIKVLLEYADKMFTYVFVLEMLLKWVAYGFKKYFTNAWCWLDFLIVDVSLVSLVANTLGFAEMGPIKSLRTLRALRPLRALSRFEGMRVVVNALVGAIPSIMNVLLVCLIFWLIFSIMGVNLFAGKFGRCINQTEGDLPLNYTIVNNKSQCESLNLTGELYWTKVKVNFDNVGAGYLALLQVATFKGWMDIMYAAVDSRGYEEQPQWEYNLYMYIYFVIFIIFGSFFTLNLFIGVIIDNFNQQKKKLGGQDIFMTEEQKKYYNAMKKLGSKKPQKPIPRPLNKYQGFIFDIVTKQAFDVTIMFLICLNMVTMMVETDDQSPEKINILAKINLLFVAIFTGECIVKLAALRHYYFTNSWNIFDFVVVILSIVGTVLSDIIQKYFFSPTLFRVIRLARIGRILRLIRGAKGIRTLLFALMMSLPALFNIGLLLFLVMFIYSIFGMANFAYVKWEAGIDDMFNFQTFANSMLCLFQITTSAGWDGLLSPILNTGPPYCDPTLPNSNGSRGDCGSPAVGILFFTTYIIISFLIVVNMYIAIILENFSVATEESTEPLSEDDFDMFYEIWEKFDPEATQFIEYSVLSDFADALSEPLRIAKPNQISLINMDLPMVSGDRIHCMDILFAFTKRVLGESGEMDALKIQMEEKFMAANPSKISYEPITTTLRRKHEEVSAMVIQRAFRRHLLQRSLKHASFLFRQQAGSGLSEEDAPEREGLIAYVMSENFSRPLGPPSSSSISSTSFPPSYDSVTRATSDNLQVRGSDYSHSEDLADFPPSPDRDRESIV
Chain of human Nav1.7 (Q15858 whole entry): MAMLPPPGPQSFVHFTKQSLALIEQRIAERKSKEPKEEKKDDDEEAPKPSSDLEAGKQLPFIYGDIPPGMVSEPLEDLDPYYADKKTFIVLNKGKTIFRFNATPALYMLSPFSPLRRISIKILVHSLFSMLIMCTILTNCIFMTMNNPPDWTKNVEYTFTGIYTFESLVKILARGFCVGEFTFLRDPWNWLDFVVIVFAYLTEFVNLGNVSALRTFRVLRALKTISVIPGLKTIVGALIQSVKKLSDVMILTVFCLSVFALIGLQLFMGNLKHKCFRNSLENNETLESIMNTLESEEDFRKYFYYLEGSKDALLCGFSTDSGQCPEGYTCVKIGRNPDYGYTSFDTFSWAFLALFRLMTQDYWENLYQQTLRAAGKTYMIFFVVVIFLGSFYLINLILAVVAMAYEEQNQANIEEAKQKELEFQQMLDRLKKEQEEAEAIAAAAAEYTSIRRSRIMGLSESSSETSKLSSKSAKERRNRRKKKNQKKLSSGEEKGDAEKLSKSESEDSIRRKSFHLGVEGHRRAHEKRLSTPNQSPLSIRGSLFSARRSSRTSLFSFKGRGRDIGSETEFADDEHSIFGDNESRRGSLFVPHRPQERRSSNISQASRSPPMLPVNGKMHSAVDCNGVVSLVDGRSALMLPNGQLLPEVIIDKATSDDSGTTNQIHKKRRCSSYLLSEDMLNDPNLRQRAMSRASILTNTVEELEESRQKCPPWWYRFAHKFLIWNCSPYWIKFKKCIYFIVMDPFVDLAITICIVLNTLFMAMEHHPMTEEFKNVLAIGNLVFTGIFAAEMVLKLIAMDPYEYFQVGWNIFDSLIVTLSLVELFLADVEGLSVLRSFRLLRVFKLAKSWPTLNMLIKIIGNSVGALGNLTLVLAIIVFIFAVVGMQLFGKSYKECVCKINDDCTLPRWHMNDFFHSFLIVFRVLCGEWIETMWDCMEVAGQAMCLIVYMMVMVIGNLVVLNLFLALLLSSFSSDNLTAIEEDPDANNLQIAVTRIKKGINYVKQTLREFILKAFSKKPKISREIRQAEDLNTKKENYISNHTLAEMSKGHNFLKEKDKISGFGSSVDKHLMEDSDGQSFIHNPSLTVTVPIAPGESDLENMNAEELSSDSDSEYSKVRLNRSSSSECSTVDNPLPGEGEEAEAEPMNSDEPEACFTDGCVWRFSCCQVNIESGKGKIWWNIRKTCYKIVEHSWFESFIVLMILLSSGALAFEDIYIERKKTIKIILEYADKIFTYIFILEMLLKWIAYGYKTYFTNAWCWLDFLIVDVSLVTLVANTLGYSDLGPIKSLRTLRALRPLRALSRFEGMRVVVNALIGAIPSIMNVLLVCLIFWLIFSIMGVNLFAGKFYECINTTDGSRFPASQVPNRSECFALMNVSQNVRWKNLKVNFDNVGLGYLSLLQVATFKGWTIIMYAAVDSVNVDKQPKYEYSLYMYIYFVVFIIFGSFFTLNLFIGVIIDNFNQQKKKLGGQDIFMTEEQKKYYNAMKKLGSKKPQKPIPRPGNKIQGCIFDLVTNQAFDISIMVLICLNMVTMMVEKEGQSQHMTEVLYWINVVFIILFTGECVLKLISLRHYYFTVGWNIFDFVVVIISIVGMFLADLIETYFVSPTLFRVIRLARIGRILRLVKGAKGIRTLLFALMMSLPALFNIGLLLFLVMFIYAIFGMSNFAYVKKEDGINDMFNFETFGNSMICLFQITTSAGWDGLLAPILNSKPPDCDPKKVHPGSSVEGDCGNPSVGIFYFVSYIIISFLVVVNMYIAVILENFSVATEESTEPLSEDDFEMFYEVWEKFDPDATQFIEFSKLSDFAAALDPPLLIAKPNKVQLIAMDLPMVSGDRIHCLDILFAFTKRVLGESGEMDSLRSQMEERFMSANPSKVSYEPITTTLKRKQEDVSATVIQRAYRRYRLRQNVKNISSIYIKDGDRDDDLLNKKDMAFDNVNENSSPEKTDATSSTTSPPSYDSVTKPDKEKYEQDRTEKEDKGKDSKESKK

As usually defined, the IC50 is the concentration that inhibits the measured activity by half. For the compound `C[C@@](Oc1ncc(-c2cc(F)c(C(=O)NS(C)(=O)=O)cc2F)cc1Cl)(c1ccccc1)C(F)(F)F` (single isomer, unassigned) [Example 804], in data set [1] (setting [3]), the IC50 was more than 3000 nM. In the case of `C[C@](Oc1ncc(-c2cc(F)c(C(=O)NS(C)(=O)=O)cc2F)cc1Cl)(c1ccccc1)C(F)(F)F` (single isomer, unassigned) [Example 805], the half-maximal inhibitory concentration (IC50) in data set [1] (setting [3]) is more than 3000 nM. For `COc1cc(C(=O)NS(C)(=O)=O)ccc1-c1cnc(Oc2cc(Cl)cc(Cl)c2)c(Cl)c1` [Example 348, 4-(5-chloro-6-(3,5-dichlorophenoxy)-3-pyridinyl)-3-methoxy-N-(methylsulfonyl)benzamide], the IC50 turned out to be 34.5 nM in data set [2] and 5740 nM in data set [1] (read-out: NAV 1.5 IWQ IC50). Consider `C[C@@](Oc1ncc(-c2cc(F)c(C(=O)NS(C)(=O)=O)cc2F)cc1Cl)(c1ccccc1)C(F)(F)F` [Example 566, 4-(5-chloro-6-((1R)-2,2,2-trifluoro-1-methyl-1-phenylethoxy)-3-pyridinyl)-2,5-difluoro-N-(methylsulfonyl)benzamide, 4-(5-chloro-6-((1S)-2,2,2-trifluoro-1-methyl-1-phenylethoxy)-3-pyridinyl)-2,5-difluoro-N-(methylsulfonyl)benzamide], for which the IC50 in data set [2] was 73.1 nM; in data set [1] (read-out: NAV 1.5 IWQ IC50), more than 3000 nM. For `Cc1cc(Cl)cc(Cl)c1Oc1ncc(-c2cc(F)c(C(=O)NS(C)(=O)=O)cc2F)cc1Cl` [Example 567, 4-(5-chloro-6-(2,4-dichloro-6-methylphenoxy)-3-pyridinyl)-2,5-difluoro-N-(methylsulfonyl)benzamide], the results for the IC50 in data set [2] and in data set [1] (read-out: NAV 1.5 IWQ IC50) were 59.8 nM and more than 4900 nM, respectively. Regarding `Cc1cc(Cl)cc(Cl)c1Oc1ncc(-c2cc(F)c(C(=O)NS(C)(=O)=O)cc2F)cc1Br` [Example 575, 4-(5-bromo-6-(2,4-dichloro-6-methylphenoxy)-3-pyridinyl)-2,5-difluoro-N-(methylsulfonyl)benzamide], the IC50 is 42.4 nM in data set [2] and more than 4900 nM in data set [1] (read-out: NAV 1.5 IWQ IC50). Consider `COc1cc(C(=O)NS(C)(=O)=O)ccc1-c1cnc(OCc2ccc(Cl)cc2)c(Cl)c1` [Example 576, 4-(5-chloro-6-((4-chlorobenzyl)oxy)-3-pyridinyl)-3-methoxy-N-(methylsulfonyl)benzamide], for which the figures for the IC50 in data set [2] and in data set [1] were 70 nM and more than 3000 nM, respectively. In the case of `COc1cc(C(=O)NS(C)(=O)=O)ccc1-c1cnc(OCc2ccccc2Cl)c(Cl)c1` [Example 577, 4-(5-chloro-6-((2-chlorobenzyl)oxy)-3-pyridinyl)-3-methoxy-N-(methylsulfonyl)benzamide], the IC50 was 95 nM in data set [2] and more than 3000 nM in data set [1] (read-out: NAV 1.5 IWQ IC50). Taken in the same sequence, the figures for `Cc1cc(Cl)cc(Cl)c1Oc1ncc(-c2ccc(C(=O)NS(C)(=O)=O)cc2OC(F)F)cc1Cl` [Example 585, 4-(5-chloro-6-(2,4-dichloro-6-methylphenoxy)-3-pyridinyl)-3-(difluoromethoxy)-N-(methylsulfonyl)benzamide] were 47.2 nM and 289 nM. Consider `Cc1cc(C(=O)NS(C)(=O)=O)c(F)cc1-c1cnc(O[C@](C)(c2ccccc2)C(F)(F)F)c(Cl)c1` [Example 587, 4-(5-chloro-6-((1R)-2,2,2-trifluoro-1-methyl-1-phenylethoxy)-3-pyridinyl)-2-fluoro-5-methyl-N-(methylsulfonyl)benzamide, 4-(5-chloro-6-((1S)-2,2,2-trifluoro-1-methyl-1-phenylethoxy)-3-pyridinyl)-2-fluoro-5-methyl-N-(methylsulfonyl)benzamide], for which the IC50 is 81.5 nM in data set [2] and more than 3000 nM in data set [1] (read-out: NAV 1.5 IWQ IC50). As to `CS(=O)(=O)NC(=O)c1cc(Cl)c(-c2cnc(Oc3ccc(F)c(F)c3F)c(Cl)c2)cc1F` [Example 588, 5-chloro-4-(5-chloro-6-(2,3,4-trifluorophenoxy)-3-pyridinyl)-2-fluoro-N-(methylsulfonyl)benzamide], the results for the IC50 in data set [2] and in data set [1] (read-out: NAV 1.5 IWQ IC50) were 82.3 nM and more than 3000 nM, respectively. Taken in the same sequence, the figures for `CS(=O)(=O)NC(=O)c1cc(Cl)c(-c2cnc(Oc3cc(F)cc(F)c3F)c(Cl)c2)cc1F` [Example 589, 5-chloro-4-(5-chloro-6-(2,3,5-trifluorophenoxy)-3-pyridinyl)-2-fluoro-N-(methylsulfonyl)benzamide] were 49.9 nM and more than 3000 nM. For `Cc1ccc(Cl)cc1Oc1ncc(-c2cc(F)c(C(=O)NS(C)(=O)=O)cc2Cl)cc1Cl` [Example 590, 5-chloro-4-(5-chloro-6-(5-chloro-2-methylphenoxy)-3-pyridinyl)-2-fluoro-N-(methylsulfonyl)benzamide], the figures for the IC50 in data set [2] and in data set [1] (read-out: NAV 1.5 IWQ IC50) were 68.1 nM and more than 3000 nM, respectively. For the compound `Cc1cc(C(=O)NS(C)(=O)=O)c(F)cc1-c1cnc(O[C@H](C)c2cc(Cl)ccc2Cl)c(Cl)c1` [Example 673, 4-(5-chloro-6-((1R)-1-(2,5-dichlorophenyl)ethoxy)-3-pyridinyl)-2-fluoro-5-methyl-N-(methylsulfonyl)benzamide], the IC50 in data set [1] (read-out: NAV 1.5 IWQ IC50) was more than 10000 nM. With `Cc1cc(C(=O)NS(C)(=O)=O)c(F)cc1-c1cccc(OC(F)(F)C(F)F)c1` [Example 812, 5-fluoro-2-methyl-N-(methylsulfonyl)-3′-(1,1,2,2-tetrafluoroethoxy)-4-biphenylcarboxamide], the midpoint of inhibition in data set [2] (in-vitro Nav 1.7 PX data), the IC50, lay at 5840 nM. Consider `Cc1cc(C(=O)NS(C)(=O)=O)c(F)cc1-c1ccc(CC2CC2)c(Cl)c1` [Example 813, 3′-chloro-4′-(cyclopropylmethyl)-5-fluoro-2-methyl-N-(methylsulfonyl)-4-biphenylcarboxamide], for which it took 141 nM to reach half-maximal inhibition in data set [2] (in-vitro Nav 1.7 PX data) (IC50).

In the case of `CCc1ccc(-c2cc(F)c(C(=O)NS(C)(=O)=O)cc2C)cc1Cl` [Example 814, 3′-chloro-4′-ethyl-5-fluoro-2-methyl-N-(methylsulfonyl)-4-biphenylcarboxamide], the IC50 in data set [2] (in-vitro Nav 1.7 PX data) was 381 nM. In data set [2] (in-vitro Nav 1.7 PX data), `Cc1cc(C(=O)NS(C)(=O)=O)c(F)cc1-c1cnc(NC(C)(C)C)c(Cl)c1` [Example 815, 4-(6-(tert-butylamino)-5-chloro-3-pyridinyl)-2-fluoro-5-methyl-N-(methylsulfonyl)benzamide] returned an IC50 of 231 nM. `Cc1cc(C(=O)NS(C)(=O)=O)c(F)cc1-c1cnc(OC(C)(C)C)c(Cl)c1` [Example 816, 4-(6-tert-butoxy-5-chloro-3-pyridinyl)-2-fluoro-5-methyl-N-(methylsulfonyl)benzamide] displayed an IC50 in data set [2] (in-vitro Nav 1.7 PX data) of 156 nM. For `Cc1cc(C(=O)NS(C)(=O)=O)c(F)cc1-c1cnc(Oc2cc(Cl)cc(Cl)c2)c(C(F)(F)F)c1` [Example 817, 4-(6-(3,5-Dichlorophenoxy)-5-(Trifluoromethyl)Pyridin-3-yl)-2-Fluoro-5-Methyl-N-(Methylsulfonyl)Benzamide], in data set [2] (in-vitro Nav 1.7 PX data), the IC50 came to 169 nM. `COc1cccc(CSc2ncc(-c3cc(F)c(C(=O)NS(C)(=O)=O)cc3C)cc2Cl)c1` [Example 818, 4-(5-Chloro-6-((3-Methoxybenzyl)Thio)-Pyridin-3-yl)-2-Fluoro-5-Methyl-N-(Methylsulfonyl)Benzamide] returned an IC50 in data set [2] (in-vitro Nav 1.7 PX data) of 169 nM. `COc1cc(C(=O)NS(C)(=O)=O)ccc1-c1cnc(COc2ccc(C#N)cc2)c(Cl)c1` [Example 819, 4-(5-Chloro-6-((4-Cyanophenoxy)Methyl)-Pyridin-3-yl)-3-Methoxy-N-(Methylsulfonyl)Benzamide] displayed an IC50 in data set [2] (in-vitro Nav 1.7 PX data) of 6560 nM. Take `COc1nccc(C)c1-c1cc(C(=O)NS(C)(=O)=O)ccc1-c1cnc(OCC(C)C)c(Cl)c1` [Example 820, 4-(5-Chloro-6-Isobutoxypyridin-3-yl)-3-(2-Methoxy-4-Methylpyridin-3-yl)-N-(Methylsulfonyl)Benzamide]: the “NAV 1.7 PX inhibition” value in data set [2] (at 5 µM (5 uM)) stood at 23%. As for `COc1cc(C(=O)NS(C)(=O)=O)ccc1-c1cnc(Oc2cc(Cl)cc(Cl)c2)c(C=O)c1` [Example 822, 4-(6-(3,5-Dichlorophenoxy)-5-Formylpyridin-3-yl)-3-Methoxy-N-(Methylsulfonyl)Benzamide], in data set [2] (in-vitro Nav 1.7 PX data), the IC50 came to 151 nM. Regarding `Cc1cc(C(=O)NS(C)(=O)=O)c(F)cc1-c1cnc(Oc2cc(Cl)cc(Cl)c2)c(C(F)F)c1` [Example 823, 4-(6-(3,5-Dichlorophenoxy)-5-(Difluoromethyl)Pyridin-3-yl)-2-Fluoro-5-Methyl-N-(Methyl Sulfonyl)Benzamide], half-maximal inhibition in data set [2] (in-vitro Nav 1.7 PX data) (IC50) was put at 179 nM. Compound `COc1cc(C(=O)NS(C)(=O)=O)ccc1-c1cnc(Oc2ccc(C)c(Cl)c2)c(C#N)c1` [Example 829, 4-(6-(3-chloro-4-methylphenoxy)-5-cyano-3-pyridinyl)-3-methoxy-N-(methylsulfonyl)benzamide] yielded an IC50 in data set [2] (in-vitro Nav 1.7 PX data) of 50.5 nM. For `COc1cc(C(=O)NS(C)(=O)=O)ccc1-c1cnc(Oc2ccnc(OC)c2Cl)c(Cl)c1` [Example 832, 4-(5-chloro-6-((3-chloro-2-methoxy-4-pyridinyl)oxy)-3-pyridinyl)-3-methoxy-N-(methylsulfonyl)benzamide], the IC50 in data set [2] (in-vitro Nav 1.7 PX data) was 92.3 nM. As for `Cc1cc(C(=O)NS(C)(=O)=O)c(F)cc1-c1cnc(-c2cc(F)cc(F)c2)c(Cl)c1` [Example 834, 4-(5-Chloro-6-(3,5-Difluorophenyl)-3-Pyridinyl)-2-Fluoro-5-Methyl-N-(Methylsulfonyl)Benzamide], half-maximal inhibition in data set [2] (in-vitro Nav 1.7 PX data) (IC50) required 498 nM. Turning to `Cc1cc(C(=O)NS(C)(=O)=O)c(F)cc1-c1cnc(-c2ccc(Cl)c(Cl)c2)c(Cl)c1` [Example 835, 4-(5-chloro-6-(3,4-dichlorophenyl)-3-pyridinyl)-2-fluoro-5-methyl-N-(methylsulfonyl)benzamide], in data set [2] (in-vitro Nav 1.7 PX data), the IC50 was found to be 167 nM. Still for that read-out and setting: with `COc1ncc(F)cc1-c1cc(-c2cc(F)c(C(=O)NS(C)(=O)=O)cc2F)cnc1OCC(C)C` [Example 837, 2,5-Difluoro-4-(5′-Fluoro-2′-Methoxy-2-(2-Methylpropoxy)-3,3′-Bipyridin-5-yl)-N-(Methylsulfonyl)Benzamide] the figure was 810 nM. Consider `CC(C)COc1ncc(-c2cc(F)c(C(=O)NS(C)(=O)=O)cc2F)cc1-c1cc(F)cc(F)c1` [Example 838, 4-(5-(3,5-difluorophenyl)-6-(2-methylpropoxy)-3-pyridinyl)-2,5-difluoro-N-(methylsulfonyl)benzamide], for which the IC50 in data set [2] (in-vitro Nav 1.7 PX data) turned out to be 642 nM.
